Measurements published in ChEMBL document CHEMBL1201862, “PubChem BioAssay data set” (2004).
Calls of active or inactive are those of the source.

Assays:
[1] = target: 26S proteasome non-ATPase regulatory subunit 14 (Homo sapiens, UniProt O00487); experiment: inhibition of proteasome subunit RPN11 – biochemical, fluorescence polarization, uHTS hits, confirmation (AID 602368); type: functional
[2] = target: 72 kDa type IV collagenase (Homo sapiens, UniProt P08253); experiment: Dose Response validation of uHTS RPN11 inhibitor hits using a MMP-2 Fluorescence assay.; type: functional
72 kDa type IV collagenase, sequence (P08253 whole entry): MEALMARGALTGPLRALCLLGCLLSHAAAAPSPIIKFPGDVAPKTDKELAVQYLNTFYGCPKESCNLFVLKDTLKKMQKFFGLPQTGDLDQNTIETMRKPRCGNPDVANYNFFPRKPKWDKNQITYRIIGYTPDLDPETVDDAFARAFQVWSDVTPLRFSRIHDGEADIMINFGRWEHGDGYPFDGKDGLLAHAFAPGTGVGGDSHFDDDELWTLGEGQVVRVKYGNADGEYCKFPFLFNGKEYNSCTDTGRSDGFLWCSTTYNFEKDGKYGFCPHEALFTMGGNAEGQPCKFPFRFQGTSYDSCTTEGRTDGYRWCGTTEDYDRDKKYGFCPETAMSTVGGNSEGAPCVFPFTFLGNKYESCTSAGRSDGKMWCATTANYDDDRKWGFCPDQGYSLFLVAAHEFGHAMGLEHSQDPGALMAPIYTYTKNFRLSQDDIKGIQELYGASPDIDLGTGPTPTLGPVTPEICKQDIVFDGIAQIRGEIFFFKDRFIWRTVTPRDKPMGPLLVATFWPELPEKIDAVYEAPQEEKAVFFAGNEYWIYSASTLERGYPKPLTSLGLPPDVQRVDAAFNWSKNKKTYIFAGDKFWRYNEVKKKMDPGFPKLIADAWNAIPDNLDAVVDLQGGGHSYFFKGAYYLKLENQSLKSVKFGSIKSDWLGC

[3] = viability loss in HeLa cells – cytotoxicity control for MgcRacGAP inhibitor project, dose response (AID 624300); type: functional
[4] = target: T1, Rac GTPase-activating protein 1 (Homo sapiens, UniProt Q9H0H5); experiment: blockers of MgcRacGAP-driven Rac1 GTP hydrolysis – biochemical, ADP Hunter fluorescence, primary and confirmatory, confirmation (AID 624330); type: functional
T1 sequence (Q9H0H5 whole entry): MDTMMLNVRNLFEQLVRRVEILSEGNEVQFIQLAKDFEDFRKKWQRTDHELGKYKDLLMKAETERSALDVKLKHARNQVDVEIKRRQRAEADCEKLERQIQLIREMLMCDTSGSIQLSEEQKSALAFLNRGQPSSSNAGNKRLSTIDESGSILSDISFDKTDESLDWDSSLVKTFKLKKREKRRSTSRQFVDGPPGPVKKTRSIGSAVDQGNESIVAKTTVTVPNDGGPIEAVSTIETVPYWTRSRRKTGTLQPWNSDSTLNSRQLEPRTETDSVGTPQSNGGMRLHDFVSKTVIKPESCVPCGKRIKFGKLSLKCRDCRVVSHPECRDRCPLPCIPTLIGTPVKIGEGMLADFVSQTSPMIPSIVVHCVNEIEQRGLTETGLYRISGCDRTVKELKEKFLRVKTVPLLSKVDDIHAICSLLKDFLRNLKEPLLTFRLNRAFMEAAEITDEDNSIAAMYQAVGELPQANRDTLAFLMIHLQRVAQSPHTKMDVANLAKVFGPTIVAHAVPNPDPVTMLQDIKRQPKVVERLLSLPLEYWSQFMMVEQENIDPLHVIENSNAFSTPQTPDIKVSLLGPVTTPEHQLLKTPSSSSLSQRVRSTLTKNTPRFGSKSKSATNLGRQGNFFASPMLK

[5] = IC50 of Artemis nuclease activity blockers – biochemical, fluorescence intensity, dose response (AID 720701); type: functional;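 note: Artemis endonuclease enzyme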
[6] = target: Dual specificity tyrosine-phosphorylation-regulated kinase 1A (Rattus norvegicus, UniProt Q63470); type: biochemical, Homo sapiens

26S proteasome non-ATPase regulatory subunit 14, sequence (O00487 whole entry): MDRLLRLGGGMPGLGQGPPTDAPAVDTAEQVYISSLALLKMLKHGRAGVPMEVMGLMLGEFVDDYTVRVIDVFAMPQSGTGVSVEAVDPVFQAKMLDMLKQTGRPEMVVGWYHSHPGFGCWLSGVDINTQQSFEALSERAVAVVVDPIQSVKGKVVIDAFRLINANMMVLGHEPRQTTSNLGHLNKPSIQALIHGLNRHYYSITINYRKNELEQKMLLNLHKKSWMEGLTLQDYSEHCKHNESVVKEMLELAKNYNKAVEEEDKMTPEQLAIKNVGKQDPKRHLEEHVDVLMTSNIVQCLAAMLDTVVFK

O=[N+]([O-])c1ccc(N/N=C/c2ccc[nH]2)cc1
active: IC50 [1] 8.96 µM | IC50 [2] 70.3 µM | CC50 [3] 100 µM | IC50 [4] 44.5 µM

CC(=O)N(/N=C1\Sc2ccccc2C1=O)c1cccc(C)c1
active: IC50 [5] 18.3 µM | AC50 [6] 28.1 µM
